# Assay results from patent publication US20160122386A1, “V1A RECEPTOR AGONISTS” (FERRING B.V., priority 2014, published 2016).
# Starred links: 1 amine or outer side, 2 acyl side, 3 side chain; linkers in the order of their positions; H or OH if unused. Positions of bridges follow the written chain, without caps; N, C: chain ends. Non-standard residues stand in square brackets, D forms with d. Residues, ends and D or L forms follow the SMILES beside them. Chains are numbered I, II in the order given. *: point of attachment. d(isoGln) = NC(=O)[C@@H](CCC(=O)[*:2])N[*:1]; dPhe(4-Cl) = N[C@H](Cc1ccc(Cl)cc1)C(=O)O; isoGln = NC(=O)[C@H](CCC(=O)[*:2])N[*:1]; d(εLys) = N[C@H](CCCCN[*:1])C(=O)[*:2]; εLys = N[C@@H](CCCCN[*:1])C(=O)[*:2]; Aad = N[C@@H](CCCC(=O)O)C(=O)O; Cit = NC(=O)NCCC[C@H](N)C(=O)O; Orn = NCCC[C@H](N)C(=O)O; Dab = NCC[C@H](N)C(=O)O; PhAc = O=C(Cc1ccccc1)*; Ava = NCCCCC(=O)O
# Molecular target: T1, human V1aR (Homo sapiens, UniProt P37288)
# T1 construct: expressed in transfected cells
# Assay: Agonist activity at vasopressin V1a receptors, cell-based FLIPR calcium assay
# Settings: for Emax: read-out: Efficacy Avg. (%)
# Procedure, shortened: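 HEK Flp-In cells stably expressing human V1aR were loaded with Calcium 4 dye plus 2.5 mM probenecid for 1 h at 37 °C, then given half-log compound concentrations (final 0.1% DMSO) on FLIPR Tetra.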
# T1 sequence (P37288 whole entry): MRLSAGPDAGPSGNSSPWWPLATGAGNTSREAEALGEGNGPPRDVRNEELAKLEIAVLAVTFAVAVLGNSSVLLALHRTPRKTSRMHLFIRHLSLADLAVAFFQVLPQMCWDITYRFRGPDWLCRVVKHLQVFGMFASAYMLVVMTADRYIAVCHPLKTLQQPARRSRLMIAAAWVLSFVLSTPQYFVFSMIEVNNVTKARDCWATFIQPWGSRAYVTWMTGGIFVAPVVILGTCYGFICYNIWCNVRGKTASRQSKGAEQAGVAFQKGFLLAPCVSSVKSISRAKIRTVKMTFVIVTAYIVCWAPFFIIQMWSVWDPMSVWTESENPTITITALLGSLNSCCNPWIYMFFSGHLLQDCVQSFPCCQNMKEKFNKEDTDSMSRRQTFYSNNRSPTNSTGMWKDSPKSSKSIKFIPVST
smiles,measurement,value
CC[C@H](C)[C@@H]1NC(=O)[C@H](Cc2ccccc2)NC(=O)[C@@H](N)CSSC[C@@H](C(=O)N2CCC[C@H]2C(=O)N[C@@H](CCNC(=O)[C@H](N)CCCCNC(=O)CC[C@H](NC(=O)[C@H](CCCNC(=N)N)NC(=O)[C@@H]2CCCN2C(=O)[C@H](C)NC(=O)[C@H](CC(N)=O)NC(=O)[C@H](CCC(N)=O)NC(=O)[C@H](Cc2ccccc2)NC(=O)[C@@H](Cc2ccc(OC)cc2)NC(=O)Cc2ccccc2)C(N)=O)C(=O)NCC(N)=O)NC(=O)[C@H](CC(N)=O)NC(=O)[C@H](CC(N)=O)NC1=O [Compound 60] (I: H-CFINNCP[Dab]G-NH2 / II: PhAc-[dY](Me)FQNAPR[isoGln][d(εLys)]; disulfide I:1-I:6; amide I:8-II:C),EC50,2.3 nM
same,Emax,42%
CC[C@H](C)[C@@H]1NC(=O)[C@H](Cc2ccccc2)NC(=O)[C@@H](N)CSSC[C@@H](C(=O)N2CCC[C@H]2C(=O)N[C@@H](CCCNCCCCCNC(=O)CCNC(=O)CC[C@H](NC(=O)[C@H](CCCNC(=N)N)NC(=O)[C@@H]2CCCN2C(=O)[C@H](C)NC(=O)[C@H](CC(N)=O)NC(=O)[C@H](CCC(N)=O)NC(=O)[C@H](Cc2ccccc2)NC(=O)[C@@H](Cc2ccc(OC)cc2)NC(=O)Cc2ccccc2)C(N)=O)C(=O)NCC(N)=O)NC(=O)[C@H](CC(N)=O)NC(=O)[C@H](CCC(N)=O)NC1=O [Compound 20],EC50,2.7 nM
same,Emax,42%
CC[C@H](C)[C@@H]1NC(=O)[C@H](Cc2ccccc2)NC(=O)[C@@H](O)CSSC[C@@H](C(=O)N2CCC[C@H]2C(=O)N[C@@H](CCCNCCCCCNC(=O)CC[C@H](NC(=O)[C@H](CCCNC(=N)N)NC(=O)[C@@H]2CCCN2C(=O)[C@H](C)NC(=O)[C@H](CC(N)=O)NC(=O)[C@H](CCC(N)=O)NC(=O)[C@H](Cc2ccccc2)NC(=O)[C@@H](Cc2ccc(OC)cc2)NC(=O)Cc2ccccc2)C(N)=O)C(=O)NCC(N)=O)NC(=O)[C@H](CC(N)=O)NC(=O)[C@H](CCC(N)=O)NC1=O [Compound 23],EC50,1.7 nM
same,Emax,51%
CC[C@H](C)[C@@H]1NC(=O)[C@H](Cc2ccccc2)NC(=O)[C@@H](N)CSSC[C@@H](C(=O)N2CCC[C@H]2C(=O)N[C@@H](CCCNCCCCCNC(=O)CC[C@H](NC(=O)[C@H](CCCNC(=N)N)NC(=O)[C@@H]2CCCN2C(=O)[C@H](CCCCN)NC(=O)[C@H](CC(N)=O)NC(=O)[C@H](CCC(N)=O)NC(=O)[C@H](Cc2ccccc2)NC(=O)[C@@H](Cc2ccc(OC)cc2)NC(=O)Cc2ccccc2)C(N)=O)C(=O)NCC(N)=O)NC(=O)[C@H](CC(N)=O)NC(=O)[C@H](CCC(N)=O)NC1=O [Compound 12],EC50,2.3 nM
same,Emax,39%
CC[C@H](C)[C@@H]1NC(=O)[C@H](Cc2ccccc2)NC(=O)[C@@H](N)CSSC[C@@H](C(=O)N2CCC[C@H]2C(=O)N[C@@H](CCCNC(=O)[C@@H](N)CCCCNC(=O)CC[C@H](NC(=O)[C@H](CCCNC(=N)N)NC(=O)[C@@H]2CCCN2C(=O)[C@H](CCCNC(=N)N)NC(=O)[C@H](CC(N)=O)NC(=O)[C@H](CCC(N)=O)NC(=O)[C@H](Cc2ccccc2)NC(=O)[C@@H](Cc2ccc(Cl)cc2)NC(=O)Cc2ccccc2)C(N)=O)C(=O)NCC(N)=O)NC(=O)[C@H](CC(N)=O)NC(=O)[C@H](CCC(N)=O)NC1=O [Compound 25] (I: H-CFIQNCP[Orn]G-NH2 / II: PhAc-[dPhe(4-Cl)]FQNRPR[isoGln][εLys]; disulfide I:1-I:6; amide I:8-II:C),EC50,1.4 nM
same,Emax,49%
CC[C@H](C)[C@@H]1NC(=O)[C@H](Cc2ccccc2)NC(=O)[C@@H](N)CSSC[C@@H](C(=O)N2CCC[C@H]2C(=O)N[C@@H](CCCNCCCCCNC(=O)CC[C@H](NC(=O)[C@H](CCCNC(=N)N)NC(=O)[C@@H]2CCCN2C(=O)[C@H](CO)NC(=O)[C@H](CC(N)=O)NC(=O)[C@H](CCC(N)=O)NC(=O)[C@H](Cc2ccccc2)NC(=O)[C@@H](Cc2ccc(OC)cc2)NC(=O)Cc2ccccc2)C(N)=O)C(=O)NCC(N)=O)NC(=O)[C@H](CC(N)=O)NC(=O)[C@H](CCC(N)=O)NC1=O [Compound 11],EC50,2.2 nM
same,Emax,51%
CC[C@H](C)[C@@H]1NC(=O)[C@H](Cc2ccccc2)NC(=O)[C@@H](N)CSSC[C@@H](C(=O)N2CCC[C@H]2C(=O)N[C@@H](CCCNCCCCCNC(=O)CC[C@H](NC(=O)[C@H](CCCNC(=N)N)NC(=O)[C@@H]2CCCN2C(=O)[C@H](CCCNC(N)=O)NC(=O)[C@H](CC(N)=O)NC(=O)[C@H](CCC(N)=O)NC(=O)[C@H](CC(C)(C)C)NC(=O)[C@@H](Cc2ccc(OC)cc2)NC(=O)Cc2ccccc2)C(N)=O)C(=O)NCC(N)=O)NC(=O)[C@H](CC(N)=O)NC(=O)[C@H](CCC(N)=O)NC1=O [Compound 46],EC50,1.4 nM
same,Emax,62%
CC[C@H](C)[C@@H]1NC(=O)[C@H](Cc2ccccc2)NC(=O)[C@@H](N)CSSC[C@@H](C(=O)N2CCC[C@H]2C(=O)N[C@@H](CCNC(=O)[C@@H](N)CCCCNC(=O)CC[C@H](NC(=O)[C@H](CCCNC(=N)N)NC(=O)[C@@H]2CCCN2C(=O)[C@H](CCCNC(N)=O)NC(=O)[C@H](CC(N)=O)NC(=O)[C@H](CCC(N)=O)NC(=O)[C@H](Cc2ccccc2)NC(=O)[C@@H](Cc2ccc(OC)cc2)NC(=O)Cc2ccccc2)C(N)=O)C(=O)NCC(N)=O)NC(=O)[C@H](CC(N)=O)NC(=O)[C@H](CCC(N)=O)NC1=O [Compound 44] (I: H-CFIQNCP[Dab]G-NH2 / II: PhAc-[dY](Me)FQN[Cit]PR[isoGln][εLys]; disulfide I:1-I:6; amide I:8-II:C),EC50,2 nM
same,Emax,40%
CC[C@H](C)[C@@H]1NC(=O)[C@H](Cc2ccccc2)NC(=O)[C@@H](N)CSSC[C@@H](C(=O)N2CCC[C@H]2C(=O)N[C@@H](CCCNCCCCCCNC(=O)CC[C@H](NC(=O)[C@H](CCCNC(=N)N)NC(=O)[C@@H]2CCCN2C(=O)[C@H](C)NC(=O)[C@H](CC(N)=O)NC(=O)[C@H](CCC(N)=O)NC(=O)[C@H](Cc2ccccc2)NC(=O)[C@@H](Cc2ccc(OC)cc2)NC(=O)Cc2ccccc2)C(N)=O)C(=O)NCC(N)=O)NC(=O)[C@H](CC(N)=O)NC(=O)[C@H](CCC(N)=O)NC1=O [Compound 4],EC50,1.5 nM
same,Emax,24%
CC[C@H](C)[C@@H]1NC(=O)[C@H](Cc2ccccc2)NC(=O)[C@@H](N)CSSC[C@@H](C(=O)N2CCC[C@H]2C(=O)N[C@@H](CCCNCCCCCC(=O)NCCCC[C@H](NC(=O)[C@H](CCCNC(=N)N)NC(=O)[C@@H]2CCCN2C(=O)[C@H](CCCNC(=N)N)NC(=O)[C@H](CC(N)=O)NC(=O)[C@H](CCC(N)=O)NC(=O)[C@H](Cc2ccccc2)NC(=O)[C@@H](Cc2ccc(OC)cc2)NC(=O)Cc2ccccc2)C(N)=O)C(=O)NCC(N)=O)NC(=O)[C@H](CC(N)=O)NC(=O)[C@H](CCC(N)=O)NC1=O [Compound 6],EC50,2.5 nM
same,Emax,28%
CC[C@H](C)[C@@H]1NC(=O)[C@H](Cc2ccccc2)NC(=O)[C@@H](N)CSSC[C@@H](C(=O)N2CCC[C@H]2C(=O)N[C@@H](CCNC(=O)[C@H](N)CCCCNC(=O)CC[C@@H](NC(=O)[C@H](CCCNC(=N)N)NC(=O)[C@@H]2CCCN2C(=O)[C@H](C)NC(=O)[C@H](CC(N)=O)NC(=O)[C@H](CCC(N)=O)NC(=O)[C@H](Cc2ccccc2)NC(=O)[C@@H](Cc2ccc(OC)cc2)NC(=O)Cc2ccccc2)C(N)=O)C(=O)NCC(N)=O)NC(=O)[C@H](CC(N)=O)NC(=O)[C@H](CCCC(N)=O)NC1=O [Compound 62] (I: H-CFI[Aad](NH2)NCP[Dab]G-NH2 / II: PhAc-[dY](Me)FQNAPR[d(isoGln)][d(εLys)]; disulfide I:1-I:6; amide I:8-II:C),EC50,2.5 nM
same,Emax,31%
CC[C@H](C)[C@@H]1NC(=O)[C@H](Cc2ccccc2)NC(=O)[C@@H](N)CSSC[C@@H](C(=O)N2CCC[C@H]2C(=O)N[C@@H](CCNC(=O)[C@@H](N)CCCCNC(=O)CCCCNC(=O)CC[C@H](NC(=O)[C@H](CCCNC(=N)N)NC(=O)[C@@H]2CCCN2C(=O)[C@H](C)NC(=O)[C@H](CC(N)=O)NC(=O)[C@H](CCC(N)=O)NC(=O)[C@H](Cc2ccccc2)NC(=O)[C@@H](Cc2ccc(OC)cc2)NC(=O)Cc2ccccc2)C(N)=O)C(=O)NCC(N)=O)NC(=O)[C@H](CC(N)=O)NC(=O)[C@H](CCC(N)=O)NC1=O [Compound 37] (I: H-CFIQNCP[Dab]G-NH2 / II: PhAc-[dY](Me)FQNAPR[isoGln][Ava][εLys]; disulfide I:1-I:6; amide I:8-II:C),EC50,1.3 nM
same,Emax,44%
CC[C@H](C)[C@@H]1NC(=O)[C@H](Cc2ccccc2)NC(=O)[C@@H](N)CSSC[C@@H](C(=O)N2CCC[C@H]2C(=O)N[C@@H](CCCNCCCCCC(=O)NCCCC[C@H](NC(=O)[C@H](CCCNC(=N)N)NC(=O)[C@@H]2CCCN2C(=O)[C@H](CC(C)C)NC(=O)[C@H](CC(N)=O)NC(=O)[C@H](CCC(N)=O)NC(=O)[C@H](Cc2ccccc2)NC(=O)[C@@H](Cc2ccc(OC)cc2)NC(=O)Cc2ccccc2)C(N)=O)C(=O)NCC(N)=O)NC(=O)[C@H](CC(N)=O)NC(=O)[C@H](CCC(N)=O)NC1=O [Compound 9],EC50,> 10000 nM
same,Emax,34%
CC[C@H](C)[C@@H]1NC(=O)[C@H](Cc2ccccc2)NC(=O)[C@@H](N)CSSC[C@@H](C(=O)N2CCC[C@H]2C(=O)N[C@@H](CCCNC(=O)[C@@H](N)CCCCNC(=O)CC[C@H](NC(=O)[C@H](CCCNC(=N)N)NC(=O)[C@@H]2CCCN2C(=O)[C@H](CCCNC(=N)N)NC(=O)[C@H](CC(N)=O)NC(=O)[C@@H](NC(=O)[C@H](Cc2ccccc2)NC(=O)[C@@H](Cc2ccc(OC)cc2)NC(=O)Cc2ccccc2)[C@@H](C)O)C(N)=O)C(=O)NCC(N)=O)NC(=O)[C@H](CC(N)=O)NC(=O)[C@H](CCC(N)=O)NC1=O [Compound 22] (I: H-CFIQNCP[Orn]G-NH2 / II: PhAc-[dY](Me)FTNRPR[isoGln][εLys]; disulfide I:1-I:6; amide I:8-II:C),EC50,0.95 nM
same,Emax,29%
